This passage reports NF-κB activation results from patent publication US9481885B2, “Methods and compositions related to miR-21 and miR-29a, exosome inhibition, and cancer metastasis” (Ohio State Innovation Foundation, priority 2011, dated 2016).

The target in the data set is T1, human TLR8 (Homo sapiens, UniProt Q9NR97).
T1 construct: host or cells: HEK-Blue TLR8 293 (TLR8-HEK-293)
T1 sequence (Q9NR97 27-1041): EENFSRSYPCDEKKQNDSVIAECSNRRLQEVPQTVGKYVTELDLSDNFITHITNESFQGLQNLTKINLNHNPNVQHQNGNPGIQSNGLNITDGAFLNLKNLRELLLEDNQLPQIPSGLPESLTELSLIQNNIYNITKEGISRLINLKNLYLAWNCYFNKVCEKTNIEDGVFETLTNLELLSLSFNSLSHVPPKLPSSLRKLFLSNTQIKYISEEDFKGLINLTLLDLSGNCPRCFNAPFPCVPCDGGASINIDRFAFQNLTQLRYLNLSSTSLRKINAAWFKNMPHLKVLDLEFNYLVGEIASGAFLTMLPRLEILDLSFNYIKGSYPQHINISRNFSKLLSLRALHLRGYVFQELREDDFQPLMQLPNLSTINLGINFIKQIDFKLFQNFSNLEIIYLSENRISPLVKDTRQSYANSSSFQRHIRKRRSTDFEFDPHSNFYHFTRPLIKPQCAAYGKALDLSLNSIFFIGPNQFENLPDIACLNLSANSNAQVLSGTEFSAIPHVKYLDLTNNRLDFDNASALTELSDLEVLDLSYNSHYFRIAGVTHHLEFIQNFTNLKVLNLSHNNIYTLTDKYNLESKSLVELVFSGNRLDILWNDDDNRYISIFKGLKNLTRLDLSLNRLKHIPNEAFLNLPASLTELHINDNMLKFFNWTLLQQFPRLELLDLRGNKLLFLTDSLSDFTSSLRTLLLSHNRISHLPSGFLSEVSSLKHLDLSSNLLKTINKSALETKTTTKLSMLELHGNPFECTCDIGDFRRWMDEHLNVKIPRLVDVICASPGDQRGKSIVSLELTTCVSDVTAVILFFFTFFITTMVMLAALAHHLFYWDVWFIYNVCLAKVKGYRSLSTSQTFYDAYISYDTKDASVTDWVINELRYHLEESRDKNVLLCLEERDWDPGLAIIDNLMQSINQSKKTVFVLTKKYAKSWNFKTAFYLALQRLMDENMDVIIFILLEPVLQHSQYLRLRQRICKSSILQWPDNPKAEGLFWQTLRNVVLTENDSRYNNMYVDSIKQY
The data set is described as follows: NF-κB reporter assay (QUANTI-Blue) in TLR8-HEK-293 cells. It counts as cell-based. The following applies: Dotap formulations of miRNA. The protocol: To investigate whether miRNA-induced activation of TLRs also occurs in human cells, an NF-κB reporter assay was performed in HEK-293 cells. NF-κB, a transcription factor modulating the expression of several cytokine genes, is activated by several TLRs, including the only ssRNA-binding human TLRs, TLR7 and TLR8. Therefore, we treated HEK-293 cells expressing human TLR7 or TLR8 (hereafter, TLR7- and TLR8-HEK-293 cells, respectively) with Dotap alone or with Dotap formulations of miR-16, -21, -29a, or -147 and performed an NF-κB reporter assay. As positive controls Gardiquimod and ssRNA40 were used, specific agonists of TLR7 and TLR8, respectively. […] To confirm this conclusion, transfected were TLR8-HEK-293 cells with a plasmid encoding a dominant negative form of TLR8 (TLR8DN) and treated these cells with the miRNAs of interest. In TLR8DN cells, the activation of NF-κB by miR-21 and miR-29a was abolished (FIG. 3F). […] NF-κB activity was assessed by QUANTI-Blue Assay (Invivogen). […] Levels of SEAP can be easily determined with QUANTI-Blue, a detection medium that turns purple/blue in the presence of alkaline phosphatase. […] The plate was then incubated at 37° C. for 1-3 h and SEAP levels were determined by reading the plate with a spectrophotometer at 620-655 nm (SpectraMax, Molecular Devices).
For orientation: In a reporter assay the amount or activity of a reporter protein is the signal.

With “miR-147: synthetic mature miRNA (SEQ ID NO: 3), sequence similar to RNA33, Dotap formulation (GUGUGUGGAAAUGCUUCUGC; DOTAP formulation, further chemistry not given here)”, the NF-κB activation result is listed as “activated”.
